Literature values in patent US20250002523A1, “RUBUSOSIDE GLUCOSIDES” (SYMRISE AG, priority 2021, published 2025).

Settings: reported in the background section

C=C1C[C@@]23CC[C@H]4[C@@](C)(CCC[C@@]4(C)C(=O)O[C@@H]4O[C@H](CO)[C@@H](O)[C@H](O)[C@H]4O)[C@@H]2CC[C@]1(O[C@@H]1O[C@H](CO)[C@@H](O)[C@H](O)[C@H]1O)C3 [Rubusoside]
sweet taste impression relative to sucrose: 200 times as strong as sucrose
